# Measured values from EP0322396A1, “Benzimidazole derivatives, their preparation and use” (Gerot-Pharmazeutika Gesellschaft m.b.H., priority 1987, dated 1989).
# How the values were obtained:
# [1] = Tolerability (test not described); assay type: in vivo; settings: compared with the reference Prazosin
# in vivo = settings: mouse, iv, Maus i.v.
# Blutdruck der Ratte = experiment: Blood pressure lowering in the rat after i.v. administration; assay type: in vivo; settings: i.v. 1,0 mg/kg, after 3 hours, compared with Nifedipin and Verapamil at the same dose
Structure (SMILES),Verträglichkeit [1],LD50 (in vivo),senkt den Blutdruck der Ratte (Blutdruck der Ratte)
"CC(O)CC(=O)N1CCC(n2c(=O)[nH]c3ccccc32)CC1 (stereo not drawn) [Beispiel 1, 1-(3-Hydroxybutyryl)-4-(2-oxo-1-benzimidazolinyl)-piperidin]",wesentlich verträglicher als die Vergleichssubstanz,,
"COC(=O)C1=C(C)NC(C)=C(C(=O)OCCCN2CCC(n3c(=O)[nH]c4ccccc43)CC2)C1c1cccc([N+](=O)[O-])c1 (stereo not drawn) [Beispiel 4, 2,6-Dimethyl-3-{3-(4-(2-oxo-1-benzimidazolinyl)-1-piperidino]-propyloxy-carbonyl}-4-(3-nitro-phenyl)-5-methoxycarbonyl-1,4-dihydropyridin]",,128 mg/kg,noch stärker als Nifedipin oder Verapamil
